Assays:
[1] = Plasma levels of isoxicam and bioavailability parameters after a single oral dose to beagle dogs; assay type: in vivo; conditions: beagle, dog, in vivo, po; for Tmax: Tmax (hours)
Experimental: The range for the individual animals was 51.4 to 63.0 µg/ml with three animals having a peak time of two hours and the final animal at eight hours. These plasma levels were considerably higher when compared to micronized isoxicam. […] Peak plasma concentrations for individual animals ranged from […] between three and six hours postdose.
Areas under the plasma concentrations versus time curve (AUC^0-∞) were calculated using the trapezoidal rule and extrapolated to infinity with the appropriate elimination rate constants.

[2] = cited from earlier work
[3] = water and alcohol; cited from earlier work

With `Cc1cc(NC(=O)C2=C(O)c3ccccc3S(=O)(=O)N2C)no1` [micronized isoxicam, 4 - hydroxy - 2 - methyl - N - (5 - methyl - 3 - isoxazolyl) - 2H - 1,2 - benzothiazine - 3 - carboxamide - 1,1 - dioxide, reference compound] the AUC ([1]; 100 mg, AUC^0-∞) was 808 µg·h/mL, the Cmax ([1]; 100 mg, Cmax (µg/ml)) was 15400 ng/mL and the half-life ([1]; 100 mg, Half-life (hours)) was 35.5 h. For the same compound, the Cmax ([1]; 100 mg, Mean Cmax) was 15400 ± 4200 ng/mL, the half-life ([1]; 100 mg, Mean half-lives (elimination, linear regression of semilogarithmic data)) was 35.5 ± 7.1 h and the Tmax ([1]; 100 mg) was 4.2 h. The AUC ([1]; 100 mg, mean AUC^0-∞) was 808 ± 230 µg·h/mL, the half-life ([1]; Half-life (hours)) was 32.6 h and the Tmax [1] was 6 h. For the same compound, the pKa [2] was “about 3.65” and the solubility [3] was “practically insoluble in water and alcohol”.
